Here are results for nine molecules from patent EP2396329B1, “COMPOUNDS FOR THE TREATMENT OF HEPATITIS C” (priority 2009, dated 2010).

The structures appear in SMILES notation. Like-named read-outs stand apart in the source and are kept apart here.

For test [1], the target named is T1, HCV NS5B (Hepatitis C virus genotype 1b, UniProt Q9WMX2).
T1 construct: The protein was expressed with an 18 amino acid C-terminal truncation to enhance the solubility; made in house; host or cells: E. coli BL21(DE3)
T1 sequence (Q9WMX2 2420-2992): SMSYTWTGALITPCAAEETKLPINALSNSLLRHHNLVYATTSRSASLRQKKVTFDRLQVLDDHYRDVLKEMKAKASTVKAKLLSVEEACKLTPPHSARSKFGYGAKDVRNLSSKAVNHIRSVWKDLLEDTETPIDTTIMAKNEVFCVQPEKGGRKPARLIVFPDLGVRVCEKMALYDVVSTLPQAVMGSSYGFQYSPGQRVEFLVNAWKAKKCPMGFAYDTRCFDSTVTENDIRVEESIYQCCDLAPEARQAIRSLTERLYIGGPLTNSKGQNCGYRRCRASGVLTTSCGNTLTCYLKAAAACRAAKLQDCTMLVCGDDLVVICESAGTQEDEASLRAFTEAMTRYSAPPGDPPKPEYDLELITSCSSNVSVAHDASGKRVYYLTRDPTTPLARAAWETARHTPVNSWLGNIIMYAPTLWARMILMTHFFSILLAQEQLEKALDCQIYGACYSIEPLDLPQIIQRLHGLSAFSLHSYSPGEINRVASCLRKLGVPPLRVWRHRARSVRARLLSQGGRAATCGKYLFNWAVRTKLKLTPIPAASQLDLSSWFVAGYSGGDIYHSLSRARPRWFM
Description: HCV NS5B RdRp enzyme assay (standard or modified). Format: biochemical. On the procedure: HCV NS5B RdRp cloning, expression, and purification. The cDNA encoding the NS5B protein of HCV, genotype 1b, was cloned into the pET21a expression vector. The protein was expressed with an 18 amino acid C-terminal truncation to enhance the solubility. The E. coli competent cell line BL21(DE3) was used for expression of the protein. Cultures were grown at 37 °C for ~ 4 hours until the cultures reached an optical density of 2.0 at 600 nm. The cultures were cooled to 20 °C and induced with I mM IPTG. Fresh ampicillin was added to a final concentration of 50 µg/ml and the cells were grown overnight at 20 °C.
Cell pellets (3L) were lysed for purification to yield 15-24 mgs of purified NS5B. The lysis buffer consisted of 20 mM Tris-HCl, pH 7.4, 500 mM NaCl, 0.5% triton X-100, 1 mM DTT, 1mM EDTA, 20% glycerol, 0.5 mg/ml lysozyme, 10 mM MgCl2, 15 ug/ml deoxyribonuclease I, and Complete TM protease inhibitor tablets (Roche). After addition of the lysis buffer, frozen cell pellets were resuspended using a tissue homogenizer. To reduce the viscosity of the sample, aliquots of the lysate were sonicated on ice using a microtip attached to a Branson sonicator. The sonicated lysate was centrifuged at 100,000 x g for 1hr at 4 °C and filtered through a 0.2 µm filter unit (Corning).
The protein was purified using three sequential chromatography steps: Heparin sepharose CL-6B, polyU sepharose 4B, and Hitrap SP sepharose (Pharmacia). The chromatography buffers were identical to the lysis buffer but contained no lysozyme, deoxyribonuclease I, MgCl2 or protease inhibitor and the NaCl concentration of the buffer was adjusted according to the requirements for charging the protein onto the column. Each column was eluted with a NaCl gradient which varied in length from 5-50 column volumes depending on the column type. After the final chromatography step, the resulting purity of the enzyme is >90% based on SDS-PAGE analysis. The enzyme was aliquoted and stored at -80 °C.
Standard HCV NS5B RdRp enzyme assay. HCV RdRp genotype 1b assays were run in a final volume of 60 µl in 96 well plates (Costar 3912). The assay buffer is composed of 20 mM Hepes, pH 7.5, 2.5 mM KCI, 2.5 mM MgCl2, 1 mM DTT, 1.6 U RNAse inhibitor (Promega N2515), 0.1 mg/ml BSA (Promega R3961), and 2 % glycerol. All compounds were serially diluted (3-fold) in DMSO and diluted further in water such that the final concentration of DMSO in the assay was 2%. HCV RdRp genotype Ib enzyme was used at a final concentration of 28 nM. A polyA template was used at.6 nM, and a biotinylated oligo-dT12 primer was used at 180 nM final concentration. Template was obtained commercially (Amersham 27-4110). Biotinylated primer was prepared by Sigma Genosys. 3H-UTP was used at 0.6 µCi (0.29 µM total UTP). Reactions were initiated by the addition of enzyme, incubated at 30 °C for 60 min, and stopped by adding 25 µl of 50 mM EDTA containing SPA beads (4 µg/µl, Amersham RPNQ 0007). Plates were read on a Packard Top Count NXT after > 1hr incubation at room temperature.
Modified HCV NS5B RdRp enzyme assay. A modified enzyme assay was performed essentially as described for the standard enzyme assay except for the following: The biotinylated oligo dT12 primer was precaptured on streptavidin-coated SPA beads by mixing primer and beads in assay buffer and incubating at room temperature for one hour. Unbound primer was removed after centrifugation. The primer-bound beads were resuspended in 20 mM Hepes buffer, pH 7.5 and used in the assay at final concentrations of 20 nM primer and 0.67 µg/µl beads. Order of addition in the assay: enzyme (14 nM) was added to diluted compound followed by the addition of a mixture of template (0.2 nM), 3H-UTP (0.6 µCi, 0.29 µM), and primer-bound beads, to initiate the reaction; concentrations given are final. Reactions were allowed to proceed for 4 hours at 30° C.
IC50 values for compounds were determined using seven different [I]. […]

In test [2] the test system is HCV replicon. Description: HCV replicon assay (FRET or luciferase readout). In kind it is cell-based. Particulars: Hepatitis C virus. The source says: FRET Assay Preparation. To perform the HCV FRET screening assay, 96-well cell culture plates were used. The FRET peptide (Anaspec, Inc.) (Taliani et al., Anal. Biochem. 1996, 240, 60-67) contains a fluorescence donor, EDANS, near one end of the peptide and an acceptor, DABCYL, near the other end. The fluorescence of the peptide is quenched by […] resonance energy transfer (RET) between the donor and the acceptor, but as the NS3 protease cleaves the peptide the products are released from RET quenching and the fluorescence of the donor becomes apparent. The assay reagent was made as follows: 5X cell Luciferase cell culture lysis reagent from Promega (#E153A) diluted to 1X with dH2O, NaCl added to 150 mM final, the FRET peptide diluted to 20 µM final from a 2 mM stock.
To prepare plates, HCV replicon cells, with or without a Renilla luciferase reporter gene, were trypsinized and placed into each well of a 96-well plate with titrated test compounds added in columns 3 through 12; columns 1 and 2 contained a control compound (HCV protease inhibitor), and the bottom row contained cells without compound. The plates were then placed in a CO2 incubator at 37 °C.
Assays. Subsequent to addition of the test compounds described above (FRET Assay Preparation), at various times the plate was removed and Alamar blue solution (Trek Diagnostics, #00-100) was added per well as a measure of cellular toxicity. After reading in a Cytoflour 4000 instrument (PE Biosystems), plates were rinsed with PBS and then used for FRET assay by the addition of 30 ul of the FRET peptide assay reagent described above (FRET Assay Preparation) per well. The plate was then placed into the Cytoflour 4000 instrument which had been set to 340 excite/490 emission, automatic mode for 20 cycles and the plate read in a kinetic mode. Typically, the signal to noise using an endpoint analysis after the reads was at least three-fold. Alternatively, after Alamar blue reading, plates were rinsed with PBS, 50 ul of DMEM (high glucose) without phenol red was added and plates were then used for luciferase assay using the Promega Dual-Glo Luciferase Assay System.
Compound analysis was determined by quantification of the relative HCV replicon inhibition and the relative cytotoxicity values. To calculate cytoxicity values, the average Alamar Blue fluorescence signals from the control wells were set as 100% non-toxic. The individual signals in each of the compound test wells were then divided by the average control signal and multiplied by 100% to determine […]. To calculate the HCV replicon inhibition values, an average background value was obtained from the two wells containing the highest amount of HCV protease inhibitor at the end of the assay period. These numbers were similar to those obtained from naïve Huh-7 cells.
The background numbers were then subtracted from the average signal obtained from the control wells and this number was used as 100% activity. The individual signals in each of the compound test wells were then divided by the averaged control values after background subtraction and multiplied by 100% to determine percent activity. EC50 values for a protease inhibitor titration were calculated as the concentration which caused a 50% reduction in FRET or luciferase activity. The two numbers generated for the compound plate, percent cytoxicity and percent activity were used to determine compounds of interest for further analysis.
On the technique in general: In antiviral work, replicon cells carry a viral genome segment that copies itself.

The mark [3] stands for this setting: HCV NS5B RdRp enzyme, genotype 1b, read-out: IC50.
Where [4] appears, read: HCV replicon cells, FRET or luciferase activity, read-out: EC50.

The term IC50 denotes the concentration at which inhibition is half-maximal. A word on the EC50: it is the concentration giving half of the maximal effect. Turning to `CCn1nc(C)c(C2=Cc3cc(OC)ccc3-c3c(C4CCCCC4)c4ccc(C(=O)NS(=O)(=O)C(C)C)cc4n3C2)c1C(=O)N1CCN(C)CC1`, the IC50 in test [1] (setting [3]) was 0.001 to 0.5 µM. The EC50 in test [2] (setting [4]) lay within 0.001 to 0.5 µM.
As for `COc1ccc2c(c1)C=C(c1c(C(=O)N3C[C@@H](C)N(C)[C@@H](C)C3)c(C(C)C)nn1C)Cn1c-2c(C2CCCCC2)c2ccc(C(=O)NS(=O)(=O)C(C)C)cc21`, the IC50 in test [1] (setting [3]) lay in the range of 0.001 to 0.5 µM. The EC50 in test [2] (setting [4]) lay in the range of 0.001 to 0.5 µM.
For `CCn1nc(C)c(C2=Cc3cc(OC)ccc3-c3c(C4CCCCC4)c4ccc(C(=O)NS(=O)(=O)C(C)C)cc4n3C2)c1C(=O)N1CCOCC1`, the IC50 in test [1] (setting [3]) is 0.001 to 0.5 µM. Moreover, the EC50 in test [2] (setting [4]) lay within 0.001 to 0.5 µM.
For `COc1ccc2c(c1)C=C(c1c(C(=O)N3C4CCC3CN(C)C4)c(C)nn1C(C)C)Cn1c-2c(C2CCCCC2)c2ccc(C(=O)NS(=O)(=O)C(C)C)cc21`, the IC50 in test [1] lay in the range of 0.001 to 0.5 µM. In addition, the EC50 in test [2] lay in the range of 0.001 to 0.5 µM.
As for `CCn1nc(C)c(C(=O)N2C3CCC2CN(C)C3)c1C1=Cc2cc(OC)ccc2-c2c(C3CCCCC3)c3ccc(C(=O)NS(=O)(=O)C(C)C)cc3n2C1`, the IC50 in test [1] lay in the range of 0.001 to 0.5 µM. This molecule also gave an EC50 in test [2] of 0.001 to 0.5 µM.
`COc1ccc2c(c1)C=C(c1c(C(=O)N3C4CCCC3COC4)cnn1C(C)C)Cn1c-2c(C2CCCCC2)c2ccc(C(=O)NS(=O)(=O)C(C)C)cc21`: the IC50 in test [1] was 0.001 to 0.5 µM. In test [2], this molecule came in with an EC50 of 0.001 to 0.5 µM.
As for `CCOC(=O)c1cnn(CC)c1C1=Cc2cc(OC)ccc2-c2c(C3CCCCC3)c3ccc(C(=O)NS(=O)(=O)C(C)C)cc3n2C1`, the half-inhibitory concentration (IC50) in test [1] (setting [3]) lay within 0.001 to 0.5 µM. For the same molecule, in test [2] (setting [4]), the EC50 was above 0.5 µM.
For `COc1ccc2c(c1)C=C(c1c(C(=O)N3C[C@@H](C)O[C@@H](C)C3)c(C(C)C)nn1C)Cn1c-2c(C2CCCCC2)c2ccc(C(=O)NS(=O)(=O)C(C)C)cc21`, in that order: 0.001 to 0.5 µM and 0.001 to 0.5 µM.
Consider `COc1ccc2c(c1)C=C(c1c(C(=O)N3CC4CC3CO4)cnn1C(C)C)Cn1c-2c(C2CCCCC2)c2ccc(C(=O)NS(=O)(=O)C(C)C)cc21` (stereo not drawn), for which the IC50 in test [1] (setting [3]) was 0.001 to 0.5 µM. Further, the EC50 in test [2] fell in the range of 0.001 to 0.5 µM.
